# Experimental data reported in patent publication US20250255932A1, “Granulocyte-Colony Stimulating Factor For The Promotion Of Scarless Tissue Regeneration” (The United States Government As Represented By The …, priority 2024, published 2025).
# B1: Granulocyte Colony-Stimulating Factor (protein, UniProt P09920 31-208, looked up)
# Granulocyte …: VPLVTVSALPPSLPLPRSFLLKSLEQVRKIQASGSVLLEQLCATYKLCHPEELVLLGHSLGIPKASLSGCSSQALQQTQCLSQLHSGLCLYQGLLQALSGISPALAPTLDLLQLDVANFATTIWQQMENLGVAPTVQPTQSAMPAFTSAFQRRAGGVLAISYLQGFLETARLALHHLA
# notes: recombinant G-CSF injected into wound beds of WT mice
# Assays:
# [1] = tested on: ear hole injury in WT and CXCR2-KO mice; experiment: Ear hole closure with topical imiquimod 5% cream; format: in vivo
# Protocol: For ear wounding, a standard 2 mm mechanical punch (Roboz, Gaithersburg, MD) was used to create a hole in the center of each outer ear (pinna). Ear hole diameter was measured using a dissection microscope (Nikon) in the horizontal and vertical directions on a weekly basis. Ears were excluded if there were signs of wound infection, tearing of the ear, or abnormal geometric shape. These criteria were pre-established. For the antibiotic experiments, the same protocol as previously published was used (11).
# To assess whether the CXCR2-mediated pathway utilized the same molecular mechanism, […] imiquimod 5% cream was rubbed on skin 5 days per week, beginning one week prior to ear hole injury in WT and CXCR2-KO mice. […] Imiquimod-treated CXCR2-KO mice achieved complete ear hole closure at a 90% frequency, which was >2-fold higher than CXCR2-KO mice (FIG. 9B, bottom graphs). Indeed, this 90% complete closure rate in imiquimod-treated CXCR2-KO mice is greater than the individual imiquimod or CXCR2 components combined.
# Cxcl2 = settings: exogenous CFH; cited from earlier work
# WT mice undergoing WIHN = experiment: Wound induced hair neogenesis (WIHN), injection into the wound bed; format: in vivo; settings: recombinant G-CSF vs PBS injected daily into wound beds of WT mice for the first 3 days
# Protocol: To assess whether the circulating factor(s) was a cell or protein, plasma from CXCR2-KO and WT (control) mice was collected and injected daily into the wound beds of WT mice undergoing WIHN for the first 3 days after injury (FIG. 4B). The WIHN model was used because the wound bed was more accessible. […] Thus, a circulating protein in CXCR2-KO plasma improves tissue regeneration.
# (§1) Next, recombinant G-CSF or PBS (control) was injected daily into the wound beds of WT mice undergoing WIHN for the first 3 days (FIG. 4D). […] This experiment was repeated in the stented back wound model. G-CSF-treated mice healed with >3-fold less scar formation compared to control mice (FIG. 4E). […] Taken together, exogenous G-CSF is sufficient to reduce scar formation and to promote complete tissue regeneration.
# 1-cm^2 full-thickness skin wounds were made as previously described (10). 5-weeks later, de novo hair follicles were identified by whole-mount alkaline phosphatase staining of dermis preparations as previously described.
# [2] = tested on: bone-marrow derived monocytes; experiment: In vitro polarization of bone-marrow derived monocytes (bulk RNA-seq gene expression); format: cell-based, mouse; settings: monocytes treated with and without G-CSF, gene expression levels (FPKM)
# From the text: (§2) In our single-cell datasets, neutrophils and macrophages were the primary cell types in injured skin to express the G-CSF receptor (Csfr3) (FIG. 8D). […] Immunofluorescence confirmed that macrophages in WT and CXCR2-KO injured skin expressed the G-CSF receptor (FIG. 8E). […] Moreover, wounded tissue was collected at day 4 after injury in the stented back wound model from G-CSF-treated or PBS-treated WT mice. […] Taken together, G-CSF reduces scar formation and promotes tissue regeneration through polarization of infiltrating macrophages into an anti-inflammatory phenotype.
# Monocytes were lysed immediately by adding TRIzol LS reagent. The samples were vortexed for 20 seconds, 0.2×volumes of chloroform was added, tubes were mixed by inverting and samples were centrifuged at 13,000 rpm at 4° C. for 15 min. The aqueous phase was then purified and the RNA-seq library were made using NEBNext® Low Input RNA Library Prep Kit (E6420S/L), following the manufacturer's instructions.
# Fastq files were aligned to the mm10 reference genome using STAR_2.4.0 in basic two Pass mode using the “Encode” options as specified in the manual. Reads overlapping with annotated genes (Ensembl build mm10) were counted using the summarizeOverlaps function from the R package “GenomicAlignments” in strand-specific, paired-end mode. […]
# [3] = tested on: epidermolysis bullosa patients; settings: systemic G-CSF; cited from earlier work
# [4] = tested on: stented back wounds on WT mice; experiment: Stented back wound model; format: in vivo
# Protocol: as §1, §2
# 6 mm disposable biopsy punch (Acuderm) was used to make two circular full thickness wounds on the dorsal back skin of mice. Silicon wound splints (Grace Bio-Labs) were sutured with 4-0 Nylon to prevent skin contracture. Wounds were dressed with a sterile occlusive dressing and monitored daily. Borders were monitored by frequently application of permanent marker.
# Standard histology and immunostaining protocols were performed, and investigators were blinded during histologic staining. 4% paraformaldehyde was used as the fixative. Briefly, immunohistochemical analysis was performed on 5-10 μm-thick sections of mouse skin. The following primary antibodies were used: rabbit monoclonal anti-Arginase-1 (93668, Cell Signaling Technology), rabbit polyclonal anti-CD80 (8679, ProSci), rabbit polyclonal anti-Histone H3 (ab5103, Abcam), goat polyclonal anti-MPO (AF3667, R&D Systems), Goat polyclonal anti-CD206 (AF2535, R&D Systems), rabbit monoclonal anti-F4/80 (70076, Cell Signaling Technology), rabbit polyclonal anti-COX2 (ab15191, Abcam), rabbit anti-iNOS (2982, Cell Signaling Technology), rabbit polyclonal anti-GCSFR (bs-2574R, Bioss) rabbit monoclonal anti-CD163 (68922, Cell Signaling Technology) and rat anti-Ly6G (551459, BD Pharmingen). […] After staining, images were directly analyzed using a Leica Microsystems DM6 B microscope equipped with a DFC9000 Camera or Keyence imaging system. […] Immunofluorescent images were analyzed using FIJI (40). The signal for the protein of interest was calculated as the percent area occupied by the cells positive for the protein of interest within the tissue section.
# The paraffin sections were first de-waxed and hydrated. […] The acquired images were analyzed for fibrosis by quantifying the percent of collagen 1 (PSR) signal within the wounded tissue region. […]
molecule,measurement,setting,value
"CC(C)Cn1cnc2c(N)nc3ccccc3c21 [Imiquimod, imiquimod]",ear hole closure,"[1]; imiquimod 5% cream on skin 5 days per week from one week prior to injury, vs control-treated mice",closed their ear holes even more efficiently than control-treated mice
same,frequency of complete ear hole closure,[1]; imiquimod-treated CXCR2-KO mice,90%
same,complete ear hole closure frequency relative to CXCR2-KO mice,[1]; imiquimod-treated CXCR2-KO mice vs CXCR2-KO mice,> 2 fold
complement factor H [CFH],fibroblast-specific expression of Cxcl2,Cxcl2,reduces fibroblast-specific expression of Cxcl2
same,macrophage recruitment,Cxcl2,no changes in macrophage recruitment
same,neutrophil recruitment,Cxcl2,reduced neutrophil recruitment
same,tissue regeneration,Cxcl2,partial tissue regeneration
B1,increase in hair follicle regeneration compared to control mice,WT mice undergoing WIHN,5 fold
same,polarization of monocytes,[2],directly polarized in vitro bone-marrow derived monocytes into an anti-inflammatory state
same,blister counts and wound sizes,[3],reduced blister counts and wound sizes
same,less scar formation compared to control mice,"[4]; G-CSF vs PBS, scar size at day 28 after injury",> 3 fold
same,fibrosis in healed skin (picrosirius red staining),[4]; G-CSF-treated WT mice vs control skin,less fibrosis than control skin
same,anti-inflammatory macrophages (Cd163 and Mrc1) in wounded tissue,"[4]; day 4 after injury, G-CSF-treated vs PBS-treated WT mice",more anti-inflammatory macrophages
same,average scar diameter,"[4]; histological analysis, G-CSF-treated WT mice (PBS ~1.8 mm)",~0.5 mm
